According to patent publication US20150037253A1, “METAL COMPLEXES AS IMAGING AGENTS” (The University of Melbourne, priority 2011, published 2015):

Key:
[1] = Cyclic voltammetry, Cu(II)/Cu(I) reduction potential; type: physicochemical; conditions: vs. SCE, in DMF, glassy carbon electrode
Experimental: Cyclic voltammograms were recorded using an AUTOLAB PGSTAT100 equipped with GPES V4.9 software. Measurements of the complexes were carried out at approximately 1×10^−3 M in dimethylformamide with tetrabutylammonium tetrafluoroborate (1×10^−1 M) as electrolyte using a glassy carbon disk (d, 3 mm) working electrode, a Pt wire counter/auxiliary electrode, and a Ag/Ag^+ pseudo reference electrode (silver wire in H2O (KCl (0.1 M)) AgNO3 (0.01 M)). Ferrocene was used as an internal reference (Em(Fc/Fc^+)=0.54 V vs. SCE), where Em refers to the midpoint between a reversible reductive (Epc) and oxidative (Epa) couple, given by Em=(Epc+Epa)/2. Irreversible systems are only given reductive (Epc) and oxidative (Epa) values, respectively.

Aβ plaques = assay: Fluorescence staining of human AD brain tissue sections, co-localisation with 1E8 immunostaining; type: binding; conditions: post-mortem AD human brain, 7 μm serial sections, BSA pre-treated
Text: Fluorescence Staining of Human AD Brain. Tissues(^10) Paraffin preserved brain tissue blocks were provided by the Victoria Brain Bank Network. Brain tissue was collected at autopsy. The National Neural Tissue Resource Centre performed Sourcing and preparation of human brain tissue. AD pathologic diagnosis was made according to standard National Institute on Aging-Reagan Institute criteria. Determination of age-matched Human control (HC) cases was subject to the above criteria. The AD and HC brain tissues sections ([…]) were first de-paraffined (xylene, 3×2 min) followed by rehydration (soaking in a series of 100%, 90%, 70% and 0% v/v ethanol/di water). The hydrated tissue sections were washed in phosphate buffer saline (PBS, 5 min). Auto-fluorescence of the tissue was quenched using potassium permanganate (0.25% in PBS, 20 min) and washing with PBS (2×2 min) to remove the excess. […] Finally, the sections were washed with PBS (3×2 min), di water and mounted with non-fluorescent mounting media (Dako), Fluorescence images were visualised using a Leica (Bannockburn, Ill.) DM1RB microscope. […] The tissue was subsequently examined by fluorescent microscopy (epi-fluorescence, λex=420 nm, λex=470 nm) and compared to a sequential brain tissue cross section immunostained with an Aβ antibody (1 E8). […]

[2] = Partition coefficients (Log D) for 64Cu complexes; type: physicochemical; conditions: 64Cu complex of the listed ligand

Structure (SMILES): CN=C([S-])N/N=C(C)/C(C)=N/NC([S-])=NC.[Cu+2] [CuII (atsm)]
- reduction potential Em (Cu^II/Cu^I couple) [1]: −0.59 V

Structure (SMILES): CC(=N\NC(=S)NCCN(C)C)/C(C)=N/Nc1ccc(/C=C/c2ccc(N(C)C)cc2)cn1 [Example H2L3, Diacetyl-2-((E)-2-hydrazino-pyridinyl-4-(4′-N,N-dimethylaminostilbene))-(4-dimethylaminoethyl-3-thiosemicarbazone)]
- binding to Aβ plaques (co-localisation of epi-fluorescence with 1E8 antibody immunostaining) (Aβ plaques): binding selectively to Aβ plaques

Structure (SMILES): CNC(S)=NN=C(C)C(C)=NN=C(S)NC [atsmH2a]
- Log D of complex [2]: 1.48
